Reference: patent US20150004202A1, “ANTIBACTERIAL AGENT AGAINST PLANT DISEASE-CAUSING BACTERIA” (priority 2012, published 2015)
Converted amounts (≈) assume the structure as drawn. Read-outs that look alike come from different tables or passages of the source.

Tests used:
[1] = test system: Clavibacter michiganensis subsp. michiganensis (field isolates KNOB16, KNOB23), tomato canker-causing bacteria; experiment: MIC by broth microdilution (investigation of measurement conditions); assay type: cell-based
[2] = test system: Ralstonia solanacearum (field isolates KNOB38, KNOB39), eggplant wilt-causing bacteria; experiment: microbe, parasite or virus in culture; assay type: cell-based
[3] = test system: field isolates listed in Table 6 (KNOB30 to KNOB110), bacteria pathogenic to crops; experiment: MIC of various amino acid-containing particles, HI medium; assay type: cell-based; settings: 24 hours after addition
Protocol: (1) Freeze-stored 4 strains were seeded on heart infusion medium and PSA medium. (2) Seeded bacteria were cultured at 25° C. for 48 hours. (3) The antibacterial activity was assessed by measurement of the minimum inhibitory concentration (MIC) in accordance with a broth microdilution method. HI medium prepared without agar was used as a liquid medium. […] The above-described antibacterial agents were added to the liquid media at various concentrations, respectively, and the cultured bacteria described in (2) were inoculated thereto, followed by judgement of the results 24 hours and 48 hours after inoculation. The tests were repeated three times (n=3).
The antibacterial activity of nanoparticles containing Gly, Arg, Asp, or Ala produced above was examined. As test bacteria, field isolates listed in Table 6, tomato canker-causing bacteria standard strains (JCM1370, JCM1373), and kidney bean wilt-causing bacterium Curtobacterium flaccumfaciens pv. flaccumfaciens standard strain (JCM1347) were used.

[4] = test system: tomato canker-causing bacteria standard strains (JCM1370, JCM1373); assay type: cell-based, Clavibacter michiganensis subsp. michiganensis; settings: 24 hours after addition
[5] = test system: Curtobacterium flaccumfaciens pv. flaccumfaciens standard strain (JCM1347), kidney bean wilt-causing bacterium; experiment: MIC of various amino acid-containing particles, HI medium; assay type: cell-based; settings: 24 hours after addition
[6] = Clavibacter michiganensis, 24 h, KNOB16, HI medium, 24 H later
[7] = Clavibacter michiganensis, 24 h, KNOB16, PSA medium, 24 H later
[8] = Clavibacter michiganensis, 24 h, KNOB23, HI medium, 24 H later
[9] = Clavibacter michiganensis, 24 h, KNOB23, PSA medium, 24 H later
[10] = Clavibacter michiganensis, 48 h, KNOB16, HI medium, 48 H later
[11] = Clavibacter michiganensis, 48 h, KNOB16, PSA medium, 48 H later
[12] = Clavibacter michiganensis, 48 h, KNOB23, HI medium, 48 H later
[13] = Clavibacter michiganensis, 48 h, KNOB23, PSA medium, 48 H later
[14] = 24 h, KNOB30, HI medium, read-out: MIC
[15] = 24 h, KNOB33, HI medium, read-out: MIC
[16] = 24 h, KNOB67, HI medium, read-out: MIC
[17] = 24 h, KNOB75, HI medium, read-out: MIC
[18] = 24 h, KNOB105, HI medium, read-out: MIC
[19] = 24 h, KNOB106, HI medium, read-out: MIC
[20] = 24 h, KNOB108, HI medium, read-out: MIC
[21] = 24 h, KNOB110, HI medium, read-out: MIC
[22] = Curtobacterium flaccumfaciens, read-out: MIC

Compound: CC1(C)S[C@@H]2[C@H](NC(=O)[C@H](N)c3ccccc3)C(=O)N2[C@H]1C(=O)O [ABPC, ampicillin]
- MIC [1, 6]: 0.25 µg/mL (≈ 0.715 µM)
- MIC [1, 7]: 0.5 µg/mL (≈ 1.43 µM)
- MIC [1, 8]: 0.25 µg/mL (≈ 0.715 µM)
- MIC [1, 9]: 0.5 µg/mL (≈ 1.43 µM)
- MIC [1, 10]: 0.25 µg/mL (≈ 0.715 µM)
- MIC [1, 11]: 1 µg/mL (≈ 2.86 µM)
- MIC [1, 12]: 0.25 µg/mL (≈ 0.715 µM)
- MIC [1, 13]: 0.5 µg/mL (≈ 1.43 µM)
- MIC ([2]; KNOB39, HI medium, 24 H later): 0.5 µg/mL (≈ 1.43 µM)
- MIC ([2]; KNOB39, HI medium, 48 H later): 0.5 µg/mL (≈ 1.43 µM)
- MIC ([2]; Ralstonia solanacearum, 24 h): 0.5 µg/mL (≈ 1.43 µM)
- MIC ([2]; Ralstonia solanacearum, 48 h): 0.5 µg/mL (≈ 1.43 µM)
- MIC [3, 14]: 0.5 µg/mL
- MIC [3, 15]: < 0.25 µg/mL
- MIC ([3]; 24 h, KNOB64, HI medium): < 0.25 µg/mL
- MIC [3, 16]: < 0.25 µg/mL
- MIC [3, 17]: 0.5 µg/mL
- MIC [3, 18]: < 0.25 µg/mL
- MIC [3, 19]: < 0.25 µg/mL
- MIC [3, 20]: 0.5 µg/mL
- MIC [3, 21]: < 0.25 µg/mL
- MIC ([4]; JCM1370, HI medium): 0.5 µg/mL (≈ 1.43 µM)
- MIC ([4]; JCM1373, HI medium): 1 µg/mL (≈ 2.86 µM)
- MIC [5, 22]: 2 µg/mL

Compound: CCO [EtOH, ethanol]
- MIC ([1]; KNOB16, HI medium, 24 H later): 15 µg/mL (≈ 326 µM)
- MIC ([1]; KNOB16, HI medium, 48 H later): 30 µg/mL (≈ 651 µM)
- MIC ([1]; KNOB16, PSA medium, 24 H later): 60 µg/mL (≈ 1300 µM)
- MIC ([1]; KNOB16, PSA medium, 48 H later): 7.5 µg/mL (≈ 163 µM)
- MIC ([1]; KNOB23, HI medium, 24 H later): 15 µg/mL (≈ 326 µM)
- MIC ([1]; KNOB23, HI medium, 48 H later): 30 µg/mL (≈ 651 µM)
- MIC ([1]; KNOB23, PSA medium, 24 H later): 7.5 µg/mL (≈ 163 µM)
- MIC ([1]; KNOB23, PSA medium, 48 H later): 15 µg/mL (≈ 326 µM)
- MIC ([2]; KNOB38, HI medium, 24 H later): 7.5 µg/mL (≈ 163 µM)
- MIC ([2]; KNOB38, HI medium, 48 H later): 15 µg/mL (≈ 326 µM)
- MIC ([2]; KNOB39, HI medium, 24 H later): 7.5 µg/mL (≈ 163 µM)
- MIC ([2]; KNOB39, HI medium, 48 H later): 7.5 µg/mL (≈ 163 µM)
- antibacterial activity against eggplant wilt-causing bacteria compared with KAS ([2]; comparison of MIC values of Table 5): stronger than KAS and nanoparticles
- MIC ([3]; KNOB30, HI medium): 30 µg/mL
- MIC ([3]; KNOB33, HI medium): 30 µg/mL
- MIC ([3]; KNOB64, HI medium): 30 µg/mL
- MIC ([3]; KNOB67, HI medium): 30 µg/mL
- MIC ([3]; KNOB75, HI medium): 60 µg/mL
- MIC ([3]; KNOB105, HI medium): 15 µg/mL
- MIC ([3]; KNOB106, HI medium): 7.5 µg/mL
- MIC ([3]; KNOB108, HI medium): 15 µg/mL
- MIC ([3]; KNOB110, HI medium): 15 µg/mL
- MIC ([4]; JCM1370, HI medium): 15 µg/mL (≈ 326 µM)
- MIC ([4]; JCM1373, HI medium): 30 µg/mL (≈ 651 µM)
- MIC [5]: 15 µg/mL

Compound: C[C@H]1O[C@H](O[C@H]2[C@H](O)[C@@H](O)[C@@H](O)[C@H](O)[C@@H]2O)[C@@H](N)C[C@@H]1NC(=N)C(=O)O [KAS, kasugamycin]
- MIC ([1]; KNOB16, HI medium, 24 H later): 32 µg/mL (≈ 84.4 µM)
- MIC ([1]; KNOB16, HI medium, 48 H later): 32 µg/mL (≈ 84.4 µM)
- MIC ([1]; KNOB16, PSA medium, 24 H later): 16 µg/mL (≈ 42.2 µM)
- MIC ([1]; KNOB16, PSA medium, 48 H later): 16 µg/mL (≈ 42.2 µM)
- MIC ([1]; KNOB23, HI medium, 24 H later): 32 µg/mL (≈ 84.4 µM)
- MIC ([1]; KNOB23, HI medium, 48 H later): 32 µg/mL (≈ 84.4 µM)
- MIC ([1]; KNOB23, PSA medium, 24 H later): 16 µg/mL (≈ 42.2 µM)
- MIC ([1]; KNOB23, PSA medium, 48 H later): 32 µg/mL (≈ 84.4 µM)
- MIC ([2]; KNOB38, HI medium, 24 H later): 8 µg/mL (≈ 21.1 µM)
- MIC ([2]; KNOB38, HI medium, 48 H later): 16 µg/mL (≈ 42.2 µM)
- MIC ([2]; KNOB39, HI medium, 24 H later): 8 µg/mL (≈ 21.1 µM)
- MIC ([2]; KNOB39, HI medium, 48 H later): 16 µg/mL (≈ 42.2 µM)
- MIC ([3]; KNOB30, HI medium): 32 µg/mL
- MIC ([3]; KNOB33, HI medium): 64 µg/mL
- MIC ([3]; KNOB64, HI medium): 64 µg/mL
- MIC ([3]; KNOB67, HI medium): 64 µg/mL
- MIC ([3]; KNOB75, HI medium): 64 µg/mL
- MIC ([3]; KNOB105, HI medium): 32 µg/mL
- MIC ([3]; KNOB106, HI medium): 32 µg/mL
- MIC ([3]; KNOB108, HI medium): 32 µg/mL
- MIC ([3]; KNOB110, HI medium): 32 µg/mL
- MIC ([4]; JCM1370, HI medium): 128 µg/mL (≈ 337 µM)
- MIC ([4]; JCM1373, HI medium): 64 µg/mL (≈ 169 µM)
- MIC [5]: 128 µg/mL

Compound: [H]/N=C(/N)N[C@H]1[C@H](O)[C@@H](O)[C@H](O[C@@H]2O[C@@H](C)[C@](O)(C=O)[C@H]2O[C@@H]2O[C@@H](CO)[C@H](O)[C@@H](O)[C@@H]2NC)[C@@H](N/C(N)=N\[H])[C@@H]1O [ST, streptomycin]
- MIC [1, 6]: 2 µg/mL (≈ 3.44 µM)
- MIC [1, 7]: 4 µg/mL (≈ 6.88 µM)
- MIC [1, 8]: 1 µg/mL (≈ 1.72 µM)
- MIC [1, 9]: 4 µg/mL (≈ 6.88 µM)
- MIC [1, 10]: 2 µg/mL (≈ 3.44 µM)
- MIC [1, 11]: 8 µg/mL (≈ 13.8 µM)
- MIC [1, 12]: 1 µg/mL (≈ 1.72 µM)
- MIC [1, 13]: 4 µg/mL (≈ 6.88 µM)
- MIC ([2]; KNOB39, HI medium, 24 H later): 8 µg/mL (≈ 13.8 µM)
- MIC ([2]; KNOB39, HI medium, 48 H later): 8 µg/mL (≈ 13.8 µM)
- MIC ([2]; Ralstonia solanacearum, 24 h): 8 µg/mL (≈ 13.8 µM)
- MIC ([2]; Ralstonia solanacearum, 48 h): 8 µg/mL (≈ 13.8 µM)
- MIC [3, 14]: 1.56 µg/mL
- MIC [3, 15]: 0.78 µg/mL
- MIC ([3]; 24 h, KNOB64, HI medium): 1.56 µg/mL
- MIC [3, 16]: 1.56 µg/mL
- MIC [3, 17]: 1.56 µg/mL
- MIC [3, 18]: 1.56 µg/mL
- MIC [3, 19]: 1.56 µg/mL
- MIC [3, 20]: 1.56 µg/mL
- MIC [3, 21]: 1.56 µg/mL
- MIC ([4]; JCM1370, HI medium): 3.9 µg/mL (≈ 6.71 µM)
- MIC ([4]; JCM1373, HI medium): 7.8 µg/mL (≈ 13.4 µM)
- MIC [5, 22]: 0.39 µg/mL
